The values that follow come from article PMC5947694, “Structure of the mouse acidic amino acid decarboxylase GADL1” (Acta Crystallographica. Section F, Structural Biology …, 2018).

The target in series [1] is T1, MmGADL1 (mouse glutamic acid decarboxylase-like protein 1) (Mus musculus, UniProt Q80WP8).
T1 construct: gene Gadl1; residues 1-502, N-terminal His6 tag and TEV site kept; expressed in E. coli; homodimer; residues 11-502 built, loop about 340-350 disordered
T1 sequence (Q80WP8 49-526 isoform Q80WP8-2): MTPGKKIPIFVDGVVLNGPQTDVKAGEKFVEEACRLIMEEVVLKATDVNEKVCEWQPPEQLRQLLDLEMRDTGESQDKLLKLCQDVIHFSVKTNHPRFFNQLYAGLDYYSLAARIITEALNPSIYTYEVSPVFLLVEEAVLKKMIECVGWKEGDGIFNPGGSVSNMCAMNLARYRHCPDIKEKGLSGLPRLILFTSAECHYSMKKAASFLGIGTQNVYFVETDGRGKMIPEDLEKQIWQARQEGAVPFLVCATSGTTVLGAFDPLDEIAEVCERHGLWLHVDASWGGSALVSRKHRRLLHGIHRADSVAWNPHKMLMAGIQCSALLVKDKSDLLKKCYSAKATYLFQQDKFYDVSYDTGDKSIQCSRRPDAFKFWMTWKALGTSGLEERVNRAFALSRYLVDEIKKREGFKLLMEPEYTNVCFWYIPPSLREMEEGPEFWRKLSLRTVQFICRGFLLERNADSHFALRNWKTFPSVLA
The series is described as follows: X-ray crystallography, […] Å (crystal form […]). Type of series: binding. The conditions noted are these: covalent; Schiff base (internal aldimine) with Lys314; active site at dimer interface, both sites occupied.

Series [2] deals with the molecule itself. As to the kind of experiment: SAXS; 1.6-6.5 mg/ml in 20 mM HEPES pH 7.4, 200 mM NaCl, 293 K; molecular mass from forward scattering I(0) against a monomeric BSA standard.

Regarding `Cc1ncc(COP(=O)(O)O)c(C=O)c1O` [PLP], the “X-ray crystallography, 3.0 Å (crystal form 1)” value in series [1] is given as “Both active sites in the dimer are occupied by the PLP cofactor, which is covalently bound”.

B1: mouse glutamic acid decarboxylase-like protein 1 (MmGADL1), His6-tagged, residues 1-502 (enzyme)
chain: MGPHHHHHHLESTSLYKKAGSENLYFQGMTPGKKIPIFVDGVVLNGPQTDVKAGEKFVEEACRLIMEEVVLKATDVNEKVCEWQPPEQLRQLLDLEMRDTGESQDKLLKLCQDVIHFSVKTNHPRFFNQLYAGLDYYSLAARIITEALNPSIYTYEVSPVFLLVEEAVLKKMIECVGWKEGDGIFNPGGSVSNMCAMNLARYRHCPDIKEKGLSGLPRLILFTSAECHYSMKKAASFLGIGTQNVYFVETDGRGKMIPEDLEKQIWQARQEGAVPFLVCATSGTTVLGAFDPLDEIAEVCERHGLWLHVDASWGGSALVSRKHRRLLHGIHRADSVAWNPHKMLMAGIQCSALLVKDKSDLLKKCYSAKATYLFQQDKFYDVSYDTGDKSIQCSRRPDAFKFWMTWKALGTSGLEERVNRAFALSRYLVDEIKKREGFKLLMEPEYTNVCFWYIPPSLREMEEGPEFWRKLSLVAPAIKEKMMKKGSLMLGYQPHRGKVNFFRQVVISPQVSREDMDFLLDEIDSLGRDM
modifications: PLP covalently bound to the N-epsilon atom of Lys314 through a Schiff base linkage (seen in the crystal)
In the case of B1, the “stoichiometry N” value in series [2] is 2 ratio to theoretical monomer.
